These results are taken from patent US20120129842A1, “BISTHIAZOLE INHIBITORS OF PRO-MATRIX METALLOPROTEINASE ACTIVATION” (priority 2010, published 2012).

The target of assay [1] is T1, proMMP9(20-445;ΔFnII) (SEQ ID NO:6) (Homo sapiens, UniProt P14780, DEL216-390).
T1 construct: start methionine (N); made in house; host or cells: E. coli BL21(DE3) RIL
T1 sequence (P14780 with tags, fused parts or gaps DEL216-390): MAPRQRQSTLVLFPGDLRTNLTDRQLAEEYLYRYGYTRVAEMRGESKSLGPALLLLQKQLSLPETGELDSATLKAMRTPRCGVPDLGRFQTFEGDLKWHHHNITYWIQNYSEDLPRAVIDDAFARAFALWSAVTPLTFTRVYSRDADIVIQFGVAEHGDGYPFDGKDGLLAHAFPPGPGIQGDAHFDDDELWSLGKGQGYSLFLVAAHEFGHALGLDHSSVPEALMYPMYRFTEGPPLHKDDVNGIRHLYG
Description: ThermoFluor binding assay with proMMP9(20-445;ΔFnII). The conditions noted are these: pH 7.0. The essentials: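 proMMP9(20-445;ΔFnII) at 2.8 μM with 50 μM 1,8-ANS in 50 mM HEPES pH 7.0, 100 mM NaCl, 0.001% Tween-20, 2.5 mM MgCl2, 300 μM CaCl2; compounds serially diluted in DMSO. Heated 40–90 °C at 1 °C/min, fluorescence read at 500±25 nm. Tm fit by standard equations; binding fit using DSC/TF-derived thermodynamic parameters.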
(Differential scanning fluorimetry follows unfolding on heating by fluorescence.)

Assay [2] concerns the target T2, proMMP9(67-444;ΔFnII) (SEQ ID NO:5) (Homo sapiens, UniProt P14780, DEL216-390).
T2 construct: start methionine (N); made in house; host or cells: E. coli BL21(DE3) RIL
T2 sequence (P14780 with tags, fused parts or gaps DEL216-390): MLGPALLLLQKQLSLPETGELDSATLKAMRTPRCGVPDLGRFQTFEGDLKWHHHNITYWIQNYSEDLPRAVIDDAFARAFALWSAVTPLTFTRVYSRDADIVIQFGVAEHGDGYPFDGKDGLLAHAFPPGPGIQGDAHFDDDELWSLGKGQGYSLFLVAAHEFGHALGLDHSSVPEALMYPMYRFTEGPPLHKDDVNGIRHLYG
Description: ThermoFluor binding assay with proMMP9(67-444;ΔFnII). The conditions noted are these: pH 7.0. The essentials: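 Thermal shift binding with 3.5 μM proMMP9(67-444;ΔFnII) and 50 μM 1,8-ANS in 50 mM HEPES pH 7.0, 100 mM NaCl, 2.5 mM MgCl2, 300 μM CaCl2, 0.001% Tween-20, with serially diluted compound. Heated 40 to 90° C at 1° C/min; fluorescence-derived Tm fitted using DSC/ThermoFluor thermodynamic parameters.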

Assay [3] addresses T3, full-length proMMP9(1-707) (SEQ ID NO:1) (Homo sapiens, UniProt P14780, R574P).
T3 construct: made in house; host or cells: HEK293 (proMMP9, secreted); E. coli (MMP3)
Description: proMMP9/MMP3 P126 Activation Assay. Format: biochemical. Particulars: 20 nM proMMP9, 20 nM MMP3, 80 min 37° C. As for the experimental part: The reaction volume was 50 μL. […] Reactivity of residual MMP3 towards P-126 substrate was minimal under these conditions.

The target in assay [4] is proMMP13(1-268) (SEQ ID NO:7) (Homo sapiens, UniProt P45452). Nature of the assay: ThermoFluor binding assay with proMMP13(1-268). Details: 6xHis (C); made in house. The conditions noted are these: pH 7.0. The protocol:
The ThermoFluor® (TF) assay is a 384-well plate-based binding assay that measures thermal stability of proteins (Biomol Screen 2001, 6, 429-40; Biochemistry 2005, 44, 5258-66). The experiments were carried out using instruments available from Johnson & Johnson Pharmaceutical Research & Development, LLC. TF dye used in all experiments was […] (1,8-ANS) (Invitrogen: A-47).
Compounds were arranged in a pre-dispensed plate (Greiner Bio-one: 781280), wherein compounds were serially diluted in 100% DMSO across 11 columns within a series. Columns 12 and 24 were used as DMSO reference and contained no compound. For multiple compound concentration-response experiments, the compound aliquots ([…]) were robotically predispensed directly into black 384-well polypropylene PCR microplates (Abgene: TF-0384/k) using a Cartesian Hummingbird liquid handler (DigiLab, Holliston, Mass.). Following compound dispense, protein and dye solutions were added to achieve the final assay volume of 3 μL. The assay solutions were overlayed with 1 μL of silicone oil (Fluka, type DC 200: 85411) to prevent evaporation.
Assay plates were robotically loaded onto a thermostatically controlled PCR-type thermal block and then heated from 40 to 90° C. at a ramp-rate of 1° C./min for all experiments. Fluorescence was measured by continuous illumination with UV light (Hamamatsu LC6) supplied via fiber optics and filtered through a band-pass filter (380-400 nm; >6 OD cutoff). Fluorescence emission of the entire 384-well plate was detected by measuring light intensity using a CCD camera (Sensys, Roper Scientific) filtered to detect 500±25 nm, resulting in simultaneous and independent readings of all 384 wells. A single image with 20-sec exposure time was collected at each temperature, and the sum of the pixel intensity in a given area of the assay plate was recorded vs temperature and fit to standard equations to yield the Tm (J Biomol Screen 2001, 6, 429-40).
Thermodynamic parameters necessary for fitting compound binding for each proMMP were estimated by differential scanning calorimetry (DSC) and from ThermoFluor® data. The heat capacity of unfolding for each protein was estimated from the molecular weight and from ThermoFluor® dosing data.
The proMMP13(1-268) (SEQ ID NO:7) protein sample preparations included a desalting buffer exchange step via a PD-10 gravity column (GE Healthcare). The desalting buffer exchange was performed prior to diluting the protein to the final assay concentration of 3.5 μM. The concentration of proMMP13(1-268) (SEQ ID NO:7) was estimated spectrophotometrically based on a calculated extinction coefficient of ε280=37000 M^−1cm^−1, a calculated molecular weight of 30.8 kDa, and calculated pI of 5.33. ThermoFluor® reference conditions were defined as follows: 100 μg/mL proMMP13(1-268) (SEQ ID NO:7), 25 μM 1,8-ANS, pH 7.0 Buffer (50 mM HEPES pH 7.0, 100 mM NaCl, 0.001% Tween-20, 2.5 mM MgCl2, 300 μM CaCl2). The thermodynamic parameters for proMMP13(1-268) (SEQ ID NO:7) are as follows: Tm (° C.)=67 (+/−0.1), ΔUH(Tm) (cal mol^−1)=107000(+/−5000), ΔUS(Tm) (cal mol^−1 K^−1)=318, ΔUCp (cal mol^−1 K^−1)=2600.

Structures can show the parent of a compound that is named as a salt.

T3 sequence (P14780 20-707 R574P): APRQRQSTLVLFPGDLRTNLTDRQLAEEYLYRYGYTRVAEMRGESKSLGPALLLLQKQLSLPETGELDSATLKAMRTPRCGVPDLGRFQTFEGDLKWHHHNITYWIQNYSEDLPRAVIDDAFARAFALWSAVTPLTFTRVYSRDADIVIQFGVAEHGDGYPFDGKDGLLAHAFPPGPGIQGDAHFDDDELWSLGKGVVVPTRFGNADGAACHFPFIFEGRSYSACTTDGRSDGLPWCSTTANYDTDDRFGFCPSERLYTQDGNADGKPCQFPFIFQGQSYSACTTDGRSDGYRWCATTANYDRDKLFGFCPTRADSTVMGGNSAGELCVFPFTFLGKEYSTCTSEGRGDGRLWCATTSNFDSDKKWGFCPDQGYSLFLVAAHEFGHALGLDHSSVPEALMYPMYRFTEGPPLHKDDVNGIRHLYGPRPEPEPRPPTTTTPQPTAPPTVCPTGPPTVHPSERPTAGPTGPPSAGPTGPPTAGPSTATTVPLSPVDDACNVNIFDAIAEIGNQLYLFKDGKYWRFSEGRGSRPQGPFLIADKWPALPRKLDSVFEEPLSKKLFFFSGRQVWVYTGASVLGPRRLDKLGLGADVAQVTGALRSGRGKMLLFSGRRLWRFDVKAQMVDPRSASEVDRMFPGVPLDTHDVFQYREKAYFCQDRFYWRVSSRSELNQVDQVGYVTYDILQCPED

What is called Kd is the free concentration of one partner at which half of the binding sites on the other are occupied at equilibrium, for simple one-to-one binding. A lower Kd goes with a tighter complex. The IC50 is the concentration that gives 50% inhibition. Read a low IC50 as greater potency in that assay. With `COc1ccc(CC(N)=O)cc1Nc1nc(-c2sc(C)nc2C)cs1` [Example 30, 2-[3-(2′,4′-Dimethyl-[4,5′]bithiazolyl-2-ylamino)-4-methoxy-phenyl]-acetamide], the results for the Kd in assay [1], in assay [2] and in assay [4] were 18000 nM, 4900 nM and greater than 95000 nM, respectively. Half-maximal inhibition in assay [3] (IC50) was put at 4100 nM.
As for `COc1cc2c(cc1Nc1nc(-c3sc(C)nc3C)cs1)C(=O)NC2` [Example 31, 6-(2′,4′-Dimethyl-[4,5′]bithiazolyl-2-ylamino)-5-methoxy-2,3-dihydro-isoindol-1-one], the Kd in assay [1] was 9000 nM; in assay [2] it was 33000 nM; in assay [4], 49000 nM. This compound gave an IC50 in assay [3] of roughly 7000 nM.
The matching figures for `Cc1nc(NC(=O)C2CCN(C)CC2)sc1-c1csc(Nc2cc(C(N)=O)ccc2OC(C)C)n1` [Example 32, 1-Methyl-piperidine-4-carboxylic acid [2-(5-carbamoyl-2-isopropoxy-phenylamino)-4′-methyl-[4,5′]bithiazolyl-2′-yl]-amide]: 720 nM, 250 nM, 1900 nM and 150 nM.
The like results for `Cc1nc(C)c(-c2csc(Nc3cc(S(N)(=O)=O)cc4c3OCC4)n2)s1` [Example 33, 7-(2′,4′-Dimethyl-[4,5′]bithiazolyl-2-ylamino)-2,3-dihydro-benzofuran-5-sulfonic acid amide] were, in that order, 13000 nM, greater than 95000 nM, 2900 nM and 7300 nM.
Consider `COc1c(F)cc(C(N)=O)cc1Nc1nc(-c2sc(C)nc2C)cs1` [Example 34, 3-(2′,4′-Dimethyl-[4,5′]bithiazolyl-2-ylamino)-5-fluoro-4-methoxy-benzamide], for which the Kd in assay [1] came to 7800 nM; in assay [2], 12000 nM; in assay [4], 28000 nM. The same compound came in with an IC50 in assay [3] of 9000 nM.
The like results for `COc1cc(C)c(C(N)=O)cc1Nc1nc(-c2sc(C)nc2C)cs1` [Example 36, 5-(2′,4′-Dimethyl-[4,5′]bithiazolyl-2-ylamino)-4-methoxy-2-methyl-benzamide.TFA] were, in that order, 850 nM, 27000 nM, 11000 nM and 670 nM.
The like results for `COc1ccc(C#N)cc1Nc1nc(-c2sc(C)nc2C)cs1` [Example 39, 3-(2′,4′-Dimethyl-[4,5′]bithiazolyl-2-ylamino)-4-methoxy-benzonitrile.TFA] were, in that order, 1100 nM, 1400 nM, greater than 95000 nM and 760 nM.
The matching figures for `COc1ccc(C#N)cc1Nc1nc(-c2sc(N)nc2C)cs1` [Example 40, 3-(2′-Amino-4′-methyl-[4,5′]bithiazolyl-2-ylamino)-4-methoxy-benzonitrile.HBr]: 990 nM, 310 nM, 1500 nM and 900 nM.
For `CC(=O)Nc1nc(C)c(-c2csc(Nc3cc(S(C)(=O)=O)ccc3OC(C)C)n2)s1` [Example 43, N-[2-(2-Isopropoxy-5-methanesulfonyl-phenylamino)-4′-methyl-[4,5]bithiazolyl-2′-yl]-acetamide.TFA], the Kd in assay [1] is 590 nM; in assay [2] it was 580 nM; in assay [4] it was 840 nM. For the same compound, in assay [3], inhibition was half-maximal at 760 nM (IC50).
On to `Cc1nc(N)sc1-c1csc(Nc2cc(S(C)(=O)=O)ccc2OC(C)C)n1` [Example 44, N^2-(2-Isopropoxy-5-methanesulfonyl-phenyl)-4′-methyl-[4,5′]bithiazolyl-2,2′-diamine.TFA], for which the Kd came to 72 nM in assay [1], 240 nM in assay [2] and 70 nM in assay [4]. Moreover, the IC50 in assay [3] was 410 nM.
The matching figures for `Cc1nc(C)c(-c2csc(Nc3cc(S(C)(=O)=O)ccc3OC(C)C)n2)s1` [Example 45, (2′,4′-Dimethyl-[4,5′]bithiazolyl-2-yl)-(2-isopropoxy-5-methanesulfonyl-phenyl)-amine.TFA]: 240 nM, 980 nM, 200 nM and 830 nM.
The like results for `CCOc1ccc(C(=O)O)cc1Nc1nc(-c2sc(N)nc2C)cs1` [Example 46, 3-(2′-Amino-4′-methyl-[4,5′]bithiazolyl-2-ylamino)-4-ethoxy-benzoic acid.HBr] were, in that order, 1400 nM, 1200 nM, 5500 nM and 1100 nM.
The matching figures for `CCOc1ccc(C(=O)O)cc1Nc1nc(-c2sc(C)nc2C)cs1` [Example 47, 3-(2′,4′-Dimethyl-[4,5′]bithiazolyl-2-ylamino)-4-ethoxy-benzoic acid.HBr]: 1800 nM, 680 nM, 2400 nM and 310 nM.
Regarding `CCOc1ccc(C(=O)O)cc1Nc1nc(-c2sc(NC(C)=O)nc2C)cs1` [Example 48, 3-(2′-Acetylamino-4′-methyl-[4,5′]bithiazolyl-2-ylamino)-4-ethoxy-benzoic acid.HBr], the Kd was found to be 23000 nM in assay [1], 3700 nM in assay [2] and 63000 nM in assay [4]. Also, in assay [3], the IC50 was found to be 1400 nM.
Turning to `CCS(=O)(=O)c1ccc(OC)c(Nc2nc(-c3sc(NC(C)=O)nc3C)cs2)c1` [Example 49, N-[2-(5-Ethanesulfonyl-2-methoxy-phenylamino)-4′-methyl-[4,5]bithiazolyl-2′-yl]-acetamide.TFA], the Kd worked out at 4100 nM in assay [1], 2500 nM in assay [2] and 6100 nM in assay [4]. The compound also gave an IC50 in assay [3] of 3000 nM.
The matching figures for `CCS(=O)(=O)c1ccc(OC)c(Nc2nc(-c3sc(C)nc3C)cs2)c1` [Example 50, (2′,4′-Dimethyl-[4,5′]bithiazolyl-2-yl)-(5-ethanesulfonyl-2-methoxy-phenyl)-amine.TFA]: 1300 nM, 2600 nM, 2600 nM and 4100 nM.
